Measurements: US20220168384A1, “Anti-Bacterial Combination Therapy” (McMaster University, priority 2019, published 2022)

Columns and labels:
Type in all cases: cell-based, Pseudomonas aeruginosa
P. aeruginosa PAO1 [1] = assay: TS dose response assay (biofilm and planktonic growth)
Procedure: Briefly, P. aeruginosa was inoculated in 5 mL of LB and grown at 37° C. overnight, shaking at 200 rpm, and subsequently standardized to an OD600 of ˜ 0.1 in 10:90. For the initial screen, 1 mM compound stocks in DMSO were diluted 1:100 in standardized cell suspension (1.5 μL of compound stock in 148.5 μL of cell suspension) to a final concentration of 10 μM. Control wells contained 10:90 plus 1% DMSO (sterility control) or standardized cell suspension plus 1% DMSO (growth control). Biofilms were formed on polystyrene peg lids (Nunc). After placement of the peg lid, the plate was sealed with parafilm to prevent evaporation and incubated for 16 h at 37° C., 200 rpm. Following incubation, the 96-peg lid was removed and planktonic density in the 96 well plate measured at OD600 to assess the effect of test compounds on bacterial growth. The lid was transferred to a new microtiter plate containing 200 μl of 1× phosphate-buffered saline (PBS) per well for 10 min to wash off any loosely adherent bacterial cells, then to a microtiter plate containing 200 μL of 0.1% (wt/vol) crystal violet (CV) per well for 15 min. Following staining, the lid was washed with 70 mL of dH2O, in a single well tray, for 10 min. This step was repeated four times to ensure complete removal of excess CV. The lid was transferred to a 96-well plate containing 200 μL of 33% (vol/vol) acetic acid per well for 5 min to elute the bound CV. The absorbance of the eluted CV was measured at 600 nm (BioTek ELx800), and the results plotted as percent of the DMSO control using Prism (Graphpad). Screens were performed in duplicate. […]. Compounds of interest were further evaluated using the same assay but over a wider range of concentrations (dose-response assay). […].
For TS dose response assays, TS stock solutions were diluted in DMSO and 2 μL of the resulting solutions plus 148 μL of a bacterial suspension standardized to an OD600 of ˜0.1 in 10:90 were added to a 96 well plate in triplicate, as described above. Control wells contained 148 μL of 10:90+1.3% DMSO (sterility control) or standardized bacterial suspension+1.3% DMSO (growth control). For ethylenediamine-N,N′-bis(2-hydroxyphenylacetic acid) (EDDHA) alone or with FeCl3 experiments, 2 μL of each were added as aqueous solutions to reach final concentrations of 0.1 μM EDDHA and 100 μM FeCl3, and the amount of bacterial suspension adjusted to keep the total well volume at 150 μL. Controls for EDDHA and FeCl3 were 2 μL of sterile dH2O. Biofilms were grown for 16 h at 37° C., 200 rpm, then stained and quantified as described above. Assays were performed in triplicate and results were graphed using Prism (Graphpad) as a percentage of the DMSO control.
Deletion mutants lacking the outer membrane components of the 4 major resistance-nodulation-division (RND) efflux systems of P. aeruginosa (MexAB-OprM, MexXY-OprM, MexCD-OprJ, and MexEF-OpmD) were generated. Briefly, the pairs of primers listed in Table 3 were used to amplify regions up- and downstream of the gene to be deleted. The PCR products were digested with the restriction enzymes indicated in the primer sequences and the resulting fragments ligated into the suicide vector pEX18Gm. After DNA sequencing validation of the constructs, they were introduced into E. coli SM10 for biparental mating into P. aeruginosa PAO1. Mating mixtures were plated on Pseudomonas isolation agar containing 200 μg/ml gentamicin (Gm) to counterselect the donor. Gm-sensitive double recombinants were selected on LB agar, with no salt and with 5% (wt/vol) sucrose. Gm-sensitive deletion mutants were identified by PCR and validated by DNA sequencing of the deletion junction.

P. aeruginosa PAO1 [2] = assay: Checkerboard assays of TS with DFP, DSX or 10% serum; conditions: 10:90 + 10% heat-inactivated mouse or human serum, regardless of DSX
Procedure: Human serum (Corning) and mouse serum (Equitech-Bio) were stored at −20° C. Sera were aliquoted into 5-ml culture tubes by thawing once at 37° C. for 30 min with occasional gentle mixing. Culture tubes were frozen at −20° C. until use. To make 10% serum solutions, serum was thawed for 10 min at 37° C. and then heat inactivated at 57° C. for 30 min. Two milliliters of heat-inactivated serum were added to 18 ml of 10:90 medium and gently mixed. This 10% serum solution was used for checkerboard assays.
Checkerboard assays were set-up using Nunc 96-well plates in an 8-well by 8-well format. Two columns were allocated for vehicle controls and two columns for sterility controls. Vehicle controls contained 2 μL DMSO plus 2 μL DFP solvent for checkerboards with TS and DFP or 4 μL DMSO for TS and DSX, in 146 μL of 10:90 medium or 10% serum inoculated with PA14 or PAO1-KP as described in Growth Curves. Sterile controls contained the same components in 10:90 medium or 10% serum, without cells. Serial dilutions of TS—with 17 μg/mL being the highest final concentration—were added along the y axis of the checkerboard (increasing concentration from bottom to top) whereas serial dilutions of DFP or DSX—with 512 μg/mL being the highest final concentration—were added along the x axis (increasing concentration from left to right). The final volume of each well was 150 μL and each checkerboard was repeated at least three times. Plates were incubated and the final OD600 determined as detailed above.

[3] = system: P. aeruginosa PAO1 and PA14 expressing Tsr; assay: TS susceptibility of P. aeruginosa expressing tsr in trans from pUCP20; conditions: VBMM
Procedure: A) Growth of PAO1; B) Growth of PA14. Each assay was performed at least 3 times in triplicate; **** p<0.0001.
The tsr gene from pIJ6902 was PCR-amplified using primers 5′[…]-3′ and 5′[…]-3′. Both the PCR product and pUCP20 vector were digested with SmaI and HindIII, gel-purified, and ligated at a 1:3 molar ratio using T4 DNA ligase. The ligated DNA was transformed into E. coli DH5a and transformants selected on LB agar containing 100 μg/mL ampicillin and 5-bromo-4-chloro-3-indolyl-β-D-galactopyranoside for blue-white selection. Plasmids from white colonies were purified using a GeneJet Plasmid Miniprep kit (Thermo Scientific) following the manufacturer's protocols. After verification by restriction digest and DNA sequencing, pUCP20 and pUCP20-tsr were each introduced into P. aeruginosa PAO1 and PA14 by electroporation. Transformants were selected on LB agar containing 200 μg/mL carbenicillin.

[4] = PAO1, 10:90 medium, dose-dependent, up to 10 μM TS

C=C(NC(=O)C(=C)NC(=O)c1csc(C2=N[C@@H]3c4csc(n4)[C@H]4NC(=O)c5csc(n5)[C@H]([C@](C)(O)[C@@H](C)O)NC(=O)[C@H]5CSC(=N5)/C(=C/C)NC(=O)[C@H]([C@@H](C)O)NC(=O)c5csc(n5)[C@]3(CC2)NC(=O)[C@H](C)NC(=O)C(=C)NC(=O)[C@H](C)NC(=O)[C@H]([C@@H](C)CC)N[C@@H]2C=Cc3c([C@H](C)O)cc(nc3[C@H]2O)C(=O)O[C@@H]4C)n1)C(N)=O [TS, thiostrepton]
planktonic cell density and biofilm stimulation with EDDHA and FeCl3 (P. aeruginosa PAO1 [1]; PAO1, 10:90 + 0.1 μM EDDHA + 100 μM FeCl3): increased planktonic cell density and reduced biofilm stimulation
biofilm stimulation and growth inhibition with EDDHA (P. aeruginosa PAO1 [1]; PAO1, 10:90 + 0.1 μM EDDHA versus 10:90 alone): shifted biofilm stimulation and growth inhibition to lower concentrations of TS
biofilm formation (P. aeruginosa PAO1 [1]; [4]): stimulated biofilm formation
planktonic cell density (P. aeruginosa PAO1 [1]; [4]): decreased planktonic cell density
TS concentrations at which planktonic cell density decreased to below the level of detection (P. aeruginosa PAO1 [1]; PAO1, VBMM): > 0.63 µM
TS susceptibility on supplementation with casamino acids (P. aeruginosa PAO1 [1]; PAO1, VBMM + 0.1% casamino acids): no change in TS susceptibility
TS susceptibility on supplementation with MgCl2 (P. aeruginosa PAO1 [1]; PAO1, VBMM + 100 mM MgCl2): no effect on susceptibility
TS susceptibility of mutants lacking the major efflux pumps (P. aeruginosa PAO1 [1]; PAO1 efflux deletion mutants): near-wild-type susceptibility
TS susceptibility on deletion of peptide transport systems (P. aeruginosa PAO1 [1]; simultaneous deletion of components of Opp (Npp) and Spp): no effect on TS susceptibility
concentration of TS required to inhibit growth in serum (P. aeruginosa PAO1 [2]): markedly decreased
resistance to TS compared to vector-only control ([3]; PA14 expressing tsr in trans (pUCP20-tsr)): significantly increased
TS concentration up to which the strain was resistant ([3]; PAO1 expressing tsr in trans (pUCP20-tsr)): 10 µM
